In ChEMBL document CHEMBL5500330, “Novel thiazolidin-4-one benzenesulfonamide hybrids as PPARγ agonists: Design, synthesis and in vivo anti-diabetic evaluation” (Eur J Med Chem, 2024):

Columns and labels:
[1] = molecular target: T1, Peroxisome proliferator-activated receptor delta (Homo sapiens, UniProt Q03181); assay: Agonist activity at human PPAR delta by luciferase reporter gene assay
T1 sequence (Q03181 whole entry): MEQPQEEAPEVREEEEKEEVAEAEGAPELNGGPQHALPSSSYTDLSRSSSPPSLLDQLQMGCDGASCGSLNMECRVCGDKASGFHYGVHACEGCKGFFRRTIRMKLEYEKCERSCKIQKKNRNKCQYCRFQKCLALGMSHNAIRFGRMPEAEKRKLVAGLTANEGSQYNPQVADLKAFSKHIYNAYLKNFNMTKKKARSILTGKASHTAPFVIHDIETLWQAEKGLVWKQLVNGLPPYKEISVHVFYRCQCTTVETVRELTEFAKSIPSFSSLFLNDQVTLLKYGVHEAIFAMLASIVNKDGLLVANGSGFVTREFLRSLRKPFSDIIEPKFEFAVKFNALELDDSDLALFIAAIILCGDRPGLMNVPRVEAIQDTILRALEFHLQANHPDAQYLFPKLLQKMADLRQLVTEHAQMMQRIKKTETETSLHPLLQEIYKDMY

[2] = Acute toxicity in male Albino mouse assessed as mortality at upto 2000 mg/kg, po measured upto 7 days; type: organism-based; conditions: in vivo, 168 h, time < 7 day
[3] = molecular target: T2, Peroxisome proliferator-activated receptor gamma (Homo sapiens, UniProt P37231); assay: Agonist activity at human PPAR gamma by luciferase reporter gene assay
T2 sequence (P37231 whole entry): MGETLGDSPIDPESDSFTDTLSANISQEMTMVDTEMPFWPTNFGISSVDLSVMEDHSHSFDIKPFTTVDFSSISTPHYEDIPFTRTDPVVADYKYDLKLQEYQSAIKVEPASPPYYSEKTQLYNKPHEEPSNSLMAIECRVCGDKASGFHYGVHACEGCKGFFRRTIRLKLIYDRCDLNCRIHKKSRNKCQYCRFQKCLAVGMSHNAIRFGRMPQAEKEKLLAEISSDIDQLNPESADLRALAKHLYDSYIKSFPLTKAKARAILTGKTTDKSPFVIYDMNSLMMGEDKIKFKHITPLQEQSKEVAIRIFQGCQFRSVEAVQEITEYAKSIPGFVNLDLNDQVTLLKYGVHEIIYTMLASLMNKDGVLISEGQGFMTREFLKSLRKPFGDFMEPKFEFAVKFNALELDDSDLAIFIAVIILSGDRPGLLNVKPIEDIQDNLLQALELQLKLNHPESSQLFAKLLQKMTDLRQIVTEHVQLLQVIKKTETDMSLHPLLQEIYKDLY

[4] = molecular target: T3, Peroxisome proliferator-activated receptor alpha (Homo sapiens, UniProt Q07869); assay: Agonist activity at human PPAR alpha by luciferase reporter gene assay
T3 sequence (Q07869 whole entry): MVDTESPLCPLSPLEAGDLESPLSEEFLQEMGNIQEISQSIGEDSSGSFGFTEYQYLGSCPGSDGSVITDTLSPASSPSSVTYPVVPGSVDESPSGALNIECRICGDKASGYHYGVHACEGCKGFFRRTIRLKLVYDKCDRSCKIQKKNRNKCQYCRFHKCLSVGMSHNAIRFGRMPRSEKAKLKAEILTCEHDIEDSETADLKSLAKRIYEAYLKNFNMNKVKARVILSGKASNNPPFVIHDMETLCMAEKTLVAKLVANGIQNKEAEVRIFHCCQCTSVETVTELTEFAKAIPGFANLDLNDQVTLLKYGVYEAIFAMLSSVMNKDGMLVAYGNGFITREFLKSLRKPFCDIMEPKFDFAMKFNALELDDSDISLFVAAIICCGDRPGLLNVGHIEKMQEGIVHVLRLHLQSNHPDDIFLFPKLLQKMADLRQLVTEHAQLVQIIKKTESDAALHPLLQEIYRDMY

[5] = system: Rattus norvegicus; assay: Antidiabetic activity against STZ induced Albino Wistar rat diabetic model assessed as hypoglycaemic effect at 36 mg/kg, po administered as single dose and measured after 15 days; type: functional; conditions: time 15 day
[6] = system: Rattus norvegicus; assay: Antidiabetic activity against NA-STZ induced Wistar rat model of type 2 diabetes assessed as increase in C-peptide level at 36 mg/kg, po measured after 21 days by ELISA method relative to control; type: functional; conditions: time 21 day
[7] = system: Rattus norvegicus; assay: Antidiabetic activity against NA-STZ induced Wistar rat model of type 2 diabetes assessed as decrease in blood glucose level at 36 mg/kg, po measured after 21 days relative to control; type: functional; parameters: scale not given: the % may be the effect or the level left; conditions: time 21 day

Row | Structure (SMILES) | EC50 [1] [µM] | Activity [2] | EC50 [3] [µM] | EC50 [4] [µM] | Activity [5] [mg/dL] | Activity [6] [%] | Activity [7] [%]
1 | NS(=O)(=O)c1ccc(NC2=NC(=O)/C(=C/c3ccc(OCc4ccc(Cl)cc4)cc3)S2)cc1 | 35.2 | Toxic |  |  |  |  | 
2 | COc1cccc(COc2cc(/C=C3\SC(Nc4ccc(S(N)(=O)=O)cc4)=NC3=O)ccc2OC)c1 |  | Non-Toxic | 2.94 | 22.7 |  |  | 
3 | CC(C)(Oc1ccc(CCNC(=O)c2ccc(Cl)cc2)cc1)C(=O)O [BEZAFIBRATE] | 25.9 |  | 83.3 |  |  |  | 
4 | COc1cc(/C=C2\SC(Nc3ccc(S(N)(=O)=O)cc3)=NC2=O)ccc1OCCc1ccccc1 | 16.3 | Toxic | 11.1 |  |  |  | 
5 | COc1cc(/C=C2\SC(Nc3ccc(S(N)(=O)=O)cc3)=NC2=O)ccc1OCc1ccc(C)cc1 | 48.1 | Toxic |  | 40.9 |  |  | 
6 | NS(=O)(=O)c1ccc(-n2cc(/C=C3\SC(=O)NC3=O)c(-c3ccc4ccccc4c3)n2)cc1 |  |  |  |  | 134.1 |  | 
7 | CCc1ccc(CCOc2ccc(CC3SC(=O)NC3=O)cc2)nc1 (stereo not given) [PIOGLITAZONE] |  |  |  |  | 132.2 | 38.6 | 35
8 | COc1cccc(COc2ccc(/C=C3\SC(Nc4ccc(S(N)(=O)=O)cc4)=NC3=O)cc2OC)c1 | 15.4 | Non-Toxic | 3.98 |  |  |  | 
